# Source: patent publication US20070249620A1, “Urea Derivative” (priority 2004, published 2007)
# What was measured:
# [1] = molecular target: T1, mouse DGAT1 (Mus musculus, UniProt Q9Z2A7); test: DGAT1 inhibitory effect test (microsome fraction, [14C]-oleoyl-CoA, triglyceride radioactivity by TLC); format: biochemical; details: 0.5 h; concentration of the test compound 0.1 μg/ml; mouse DGAT1 microsomes, 23° C., 30 minutes; read-out: Inhibitory ratio
# T1 construct: made in house; host or cells: insect cells (High Five, Sf9, Sf21, etc.), baculovirus expression system (Invitrogen)
# T1 sequence (Q9Z2A7 1-498): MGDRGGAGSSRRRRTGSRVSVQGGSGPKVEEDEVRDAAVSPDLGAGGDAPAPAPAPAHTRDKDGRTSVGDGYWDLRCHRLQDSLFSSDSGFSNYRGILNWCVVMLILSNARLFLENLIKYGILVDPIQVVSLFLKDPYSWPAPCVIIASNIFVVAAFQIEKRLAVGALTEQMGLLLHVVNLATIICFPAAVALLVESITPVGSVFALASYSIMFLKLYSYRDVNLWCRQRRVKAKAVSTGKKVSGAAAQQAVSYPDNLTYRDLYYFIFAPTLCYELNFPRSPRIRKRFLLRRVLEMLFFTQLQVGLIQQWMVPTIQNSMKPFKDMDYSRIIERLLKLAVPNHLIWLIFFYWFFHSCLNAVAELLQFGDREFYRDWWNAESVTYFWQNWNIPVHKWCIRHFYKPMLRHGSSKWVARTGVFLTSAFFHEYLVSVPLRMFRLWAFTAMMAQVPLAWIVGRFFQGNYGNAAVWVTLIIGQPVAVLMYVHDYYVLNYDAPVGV
# Description: The cDNA which encodes mouse DGAT1 was cloned from a mouse cDNA library by polymerase chain reaction (hereinafter referred to as “PCR”) and introduced into an insect cell virus vector (baculovirus expression system, Invitrogen). After insect cells (High Five, Sf9, Sf21, etc., Invitrogen) were infected with the virus, the cells were collected in buffer A [0.1M sucrose, 50 mM KCl, 40 mM potassium phosphate (pH 7.4), 30 mM EDTA, 1% Protease inhibitor cocktail (SIGMA, P-8340)] and crushed with a Polytron homogenizer. The supernatant obtained by subjecting the homogenate to low speed centrifugal processing (10,000 ×g, 30 minutes) was further subjected to higher-speed centrifugal processing (100,000 ×g, 60 minutes) and the precipitate was resuspended in buffer A as the microsome fraction and used as DGAT1 enzyme. The DGAT1 enzyme was divided into small volumes and stored at −80° C.
# (2) DGAT1 Inhibitory Effect Test
# The reaction liquid of the following composition [175 mM Tris-HCl (pH 8.0), 8 mM MgCl2, 1 mg/ml BSA, 0.5 mM 1,2-dioleoyl-sn-glycerol (EtOH solution of 10-fold concentration, 10% added), 30 μM[14C]-oleoyl-CoA (about 50 mCi/mmol), 0.5% triton X-100, DGAT1 enzyme (10 μg) obtained in Test Example 1(1), test compound or vehicle (DMSO/MeOH, 7:3 solution, 5% added), total volume 50 μl] was incubated at room temperature (23° C.) for 30 minutes. A reaction terminating solution (70 μl) consisting of isopropanol/1-heptane/water (80:20:2, v/v/v) was added to the reaction solution and stirred, and subsequently stirred with water (30 μl) and 1-heptane (100 μl). The 1-heptane layer (50 μl) was spotted onto a TLC plate and developed with a developing solvent consisting of 1-hexane/diethyl ether/acetic acid (85:15:1, v/v/v). Radioactivity of triglyceride fraction was quantified by BAS2000 bio image analyzer (Fuji Film) and the inhibitory effect of the test compounds was calculated by the following formula through comparison with control. Here, radioactivity at no reaction (0 minutes incubation) was assumed as background. Inhibitory ratio=100−[(Radioactivity when test compound was added)−(Background)]/[(Radioactivity by control)−(Background)]×100
melting point,inhibition at 0.1 µg/mL [1] [%],Structure (SMILES)
186 to 187 °C,≥ 50,"COc1ccc(C)cc1NC(=O)Nc1ccc(N2CCN(C(=O)Nc3ccc(C)cc3Cl)CC2)cc1 [Example 76, 4-{4-[3-(2-methoxy-5-methyl-phenyl)-ureido]-phenyl}-piperazine-1-carboxylic acid (2-chloro-4-methyl-phenyl)-amide]"
240 to 241 °C,≥ 50,"COc1ccc(F)cc1NC(=O)Nc1ccc(N2CCN(C(=O)Nc3c(C)cccc3Cl)CC2)cc1 [Example 98, 4-{4-[3-(5-fluoro-2-methoxy-phenyl)-ureido]-phenyl}-piperazine-1-carboxylic acid (2-chloro-6-methyl-phenyl)-amide]"
213 to 215 °C,≥ 50,"Cc1cccnc1NC(=O)N1CCN(c2ccc(NC(=O)Nc3ccccc3F)cn2)CC1 [Example 302, 4-{5-[3-(2-fluoro-phenyl)-ureido]-pyridin-2-yl}-piperazine-1-carboxylic acid (3-methyl-pyridin-2-yl)-amide]"
144 to 146 °C,≥ 50,"CCOc1ccc(C)cc1NC(=O)Nc1ccc(N2CCN(C(=O)Nc3c(F)cccc3C(F)(F)F)CC2)cc1 [Example 119, 4-{4-[3-(2-ethoxy-5-methyl-phenyl)-ureido]-phenyl}-piperazine-1-carboxylic acid (2-fluoro-6-trifluoromethyl-phenyl)-amide]"
156 to 158 °C,≥ 50,"COc1ccc(Cl)cc1NC(=O)Nc1ccc(N2CCN(C(=O)Nc3c(F)cccc3C(F)(F)F)CC2)cc1 [Example 115, 4-{4-[3-(5-chloro-2-methoxy-phenyl)-ureido]-phenyl}-piperazine-1-carboxylic acid (2-fluoro-6-trifluoromethyl-phenyl)-amide]"
192 to 194 °C,≥ 50,"COc1ccc(C)cc1NC(=O)Nc1ccc(N2CCN(C(=O)Nc3c(C)cccc3CO)CC2)cc1 [Example 185, 4-{4-[3-(2-methoxy-5-methyl-phenyl)-ureido]-phenyl}-piperazine-1-carboxylic acid (2-hydroxymethyl-6-methyl-phenyl)-amide]"
238 to 240 °C,≥ 50,"COc1ccc(C)cc1NC(=O)Nc1ccc(N2CCN(C(=O)Nc3c(C)cc(Cl)cc3C)CC2)cc1 [Example 174, 4-{4-[3-(2-methoxy-5-methyl-phenyl)-ureido]-phenyl}-piperazine-1-carboxylic acid (4-chloro-2,6-dimethyl-phenyl)-amide]"
186 to 187 °C,≥ 50,"COc1ccc(C)cc1NC(=O)Nc1ccc(N2CCN(C(=O)Nc3ccc(Cl)cc3C(F)(F)F)CC2)cc1 [Example 86, 4-{4-[3-(2-methoxy-5-methyl-phenyl)-ureido]-phenyl}-piperazine-1-carboxylic acid (4-chloro-2-trifluoromethyl-phenyl)-amide]"
215 to 216 °C,≥ 50,"COc1cccnc1NC(=O)Nc1ccc(N2CCN(C(=O)Nc3ccc(OCCO)cc3Cl)CC2)cc1 [Example 270, 4-{4-[3-(3-methoxy-pyridin-2-yl)-ureido]-phenyl}-piperazine-1-carboxylic acid [2-chloro-4-(2-hydroxy-ethoxy)-phenyl]-amide]"
189 to 190 °C,≥ 50,"COc1ccc(C)cc1NC(=O)Nc1ccc(N2CCN(C(=O)Oc3ccc(CCO)cc3Cl)CC2)cc1 [Example 395, 4-{4-[3-(2-methoxy-5-methyl-phenyl)-ureido]-phenyl}-piperazine-1-carboxylic acid 2-chloro-4-(2-hydroxy-ethyl)-phenyl ester]"
245 to 247 °C,≥ 50,"COc1ccc(NC(=O)N2CCN(c3ccc(NC(=O)Nc4cc(C)ccc4OC)cc3)CC2)c(C(F)(F)F)c1 [Example 175, 4-{4-[3-(2-methoxy-5-methyl-phenyl)-ureido]-phenyl}-piperazine-1-carboxylic acid (4-methoxy-2-trifluoromethyl-phenyl)-amide]"
132 to 134 °C,≥ 50,"COc1ccc(C)cc1NC(=O)Nc1ccc(N2CCN(C(=O)Nc3cc(OCCO)ccc3Cl)CC2)nc1 [Example 238, 4-{5-[3-(2-methoxy-5-methyl-phenyl)-ureido]-pyridin-2-yl}-piperazine-1-carboxylic acid [2-chloro-5-(2-hydroxy-ethoxy)-phenyl]-amide]"
144 to 146 °C,≥ 50,"COc1ccc(C)cc1NC(=O)Nc1ccc(N2CCN(C(=O)Nc3ncccc3C)CC2)c(C)c1 [Example 313, 4-{4-[3-(2-methoxy-5-methyl-phenyl)-ureido]-2-methyl-phenyl}-piperazine-1-carboxylic acid (3-methyl-pyridin-2-yl)-amide]"
134 to 137 °C,≥ 50,"COc1ccc(C)cc1NC(=O)Nc1ccc(C2CCN(C(=O)Nc3ccc(OCCO)cc3Cl)CC2)cc1 [Example 257, 4-{4-[3-(2-methoxy-5-methyl-phenyl)-ureido]-phenyl}-piperidine-1-carboxylic acid [2-chloro-4-(2-hydroxy-ethoxy)-phenyl]-amide]"
,≥ 50,"COc1ccc(C)cc1NC(=O)Nc1ccc2c(c1)CCN(C(=O)Nc1ncccc1C)C2 [Example 297, 6-[3-(2-methoxy-5-methyl-phenyl)-ureido]-3,4-dihydro-1H-isoquinoline-2-carboxylic acid (3-methyl-pyridin-2-yl)-amide]"
200 to 201 °C,,"COc1ccc(C)cc1NC(=O)Nc1ccc(N2CCN(C(=O)Nc3ccccc3F)CC2)cc1 [Example 52, 4-{4-[3-(2-methoxy-5-methyl-phenyl)-ureido]-phenyl}-piperazine-1-carboxylic acid (2-fluoro-phenyl)-amide]"
> 250 °C (dec.),,"COc1ccc(C)cc1NC(=O)Nc1ccc(N2CCC(C(=O)Nc3c(C)cccc3Cl)CC2)cc1 [Example 196, 1-{4-[3-(2-methoxy-5-methyl-phenyl)-ureido]-phenyl}-piperidine-4-carboxylic acid (2-chloro-6-methyl-phenyl)-amide]"
185 to 186 °C,,"COc1ccc(C)cc1NC(=O)Nc1ccc(N2CCN(C(=O)OC(C)(C)C)CC2)nc1 [Example 38, 4-{5-[3-(2-methoxy-5-methyl-phenyl)-ureido]-pyridin-2-yl}-piperazine-1-carboxylic acid tert-butyl ester]"
199 to 201 °C,,"COc1ccc(C)cc1NC(=O)Nc1ccc(N2CCN(C(=O)Nc3ccc(Cl)cc3C)CC2)cc1 [Example 74, 4-{4-[3-(2-methoxy-5-methyl-phenyl)-ureido]-phenyl}-piperazine-1-carboxylic acid (4-chloro-2-methyl-phenyl)-amide]"
204 to 205 °C,,"CCc1ccc(NC(=O)Nc2ccc(N3CCN(C(=O)OC(C)(C)C)CC3)cc2)cc1 [Example 24, 4-{4-[3-(4-ethyl-phenyl)-ureido]-phenyl}-piperazine-1-carboxylic acid tert-butyl ester]"
228 to 230 °C,,"COc1ccc(C)cc1NC(=O)Nc1ccc(N2CCN(C(=O)Nc3cccc(Cl)c3C)CC2)cc1 [Example 136, 4-{4-[3-(2-methoxy-5-methyl-phenyl)-ureido]-phenyl}-piperazine-1-carboxylic acid (3-chloro-2-methyl-phenyl)-amide]"
218 to 220 °C,,CCOP(=O)(Cc1ccc(NC(=O)Nc2ccc(N3CCN(C(=O)Nc4c(C)cccc4Cl)CC3)cc2)cc1)OCC

Structure (SMILES),melting point,inhibition at 0.1 µg/mL [1] [%]
"CCOP(=O)(Cc1ccc(NC(=O)N2CCN(c3ccc(NC(=O)Nc4cc(C)ccc4OC)cc3)CC2)c(C)c1)OCC [Example 390, {4-[(4-{4-[3-(2-methoxy-5-methyl-phenyl)-ureido]-phenyl}-piperazine-1-carbonyl)-amino]-3-methyl-benzyl}-phosphonic acid diethyl ester]",,≥ 50
